ChEMBL document CHEMBL1201862, “PubChem BioAssay data set” (2004)
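Each compound was tested at five concentrations against cells in 96-well plates for 48 hours. Abbreviation: GI50, concentration required for 50% inhibition of growth.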 Active and inactive are the calls of the source. Rule as the data show it: active = GI50 up to about 1.1 µM and inactive = higher.

Key:
Test in all cases: NCI-60 cell line screen, 48 h
XF498 = tested on: XF498
DMS-273 = tested on: DMS-273
M19-MEL = tested on: M19-MEL
RXF 631 = tested on: RXF 631
HOP-18 = tested on: HOP-18
LXFL 529 = tested on: LXFL 529
DLD-1 = tested on: DLD-1
SNB-78 = tested on: SNB-78
DMS-114 = tested on: DMS-114

| SMILES | GI50 (XF498) | GI50 (DMS-273) | GI50 (M19-MEL) | GI50 (RXF 631) | GI50 (HOP-18) | GI50 (LXFL 529) | GI50 (DLD-1) | GI50 (SNB-78) | GI50 (DMS-114) |
| --- | --- | --- | --- | --- | --- | --- | --- | --- | --- |
| O=C(O)CCCNS(=O)(=O)c1ccc2ccccc2c1 | > 100 µM (inactive) | > 100 µM (inactive) | > 100 µM (inactive) | > 100 µM (inactive) | > 100 µM (inactive) | > 100 µM (inactive) | > 100 µM (inactive) |  |  |
| COC(=O)C12OCC34C(CC5C(C)=C(O)C(=O)CC5(C)C3C(O)C1O)OC(=O)C(OC(=O)C=C(C)C)C24 (stereo unspecified) | 335 µM (inactive) | > 500 µM (inactive) | 287 µM (inactive) |  | > 500 µM (inactive) |  | 108 µM (inactive) | > 476 µM (inactive) | 167 µM (inactive) |
| CC(C)N(C(=O)C12C3C4C5(C#N)C3C1(C#N)C5C42I)C(C)C (stereo unspecified) | > 100 µM (inactive) | > 43.4 µM (inactive) | 97.1 µM (inactive) | > 100 µM (inactive) | > 100 µM (inactive) | > 100 µM (inactive) | > 42.6 µM (inactive) | > 100 µM (inactive) | > 44.4 µM (inactive) |
| COC(=O)c1ccc(OCc2ccc3nc(OC)c(OC)nc3c2)cc1 | > 100 µM (inactive) | > 100 µM (inactive) | > 100 µM (inactive) |  | > 100 µM (inactive) |  | > 100 µM (inactive) | > 100 µM (inactive) | 52.8 µM (inactive) |
| O=C(CC1OC(O)C(Cl)=C1Cl)c1cccnc1 (stereo unspecified) | > 100 µM (inactive) | > 53 µM (inactive) | > 62.4 µM (inactive) | > 100 µM (inactive) | > 100 µM (inactive) | > 56.1 µM (inactive) |  | > 100 µM (inactive) | > 41.1 µM (inactive) |
| COC(=O)[C@]12CC=C3O[C@@H]4OC5(CCCCC5)O[C@@H]4C3[C@@H]1C(=O)CCC2=O (stereo partly specified) | > 100 µM (inactive) | > 100 µM (inactive) |  | > 100 µM (inactive) | > 100 µM (inactive) | > 100 µM (inactive) | > 100 µM (inactive) | > 100 µM (inactive) | > 100 µM (inactive) |
| O=C(c1cc2c(C(F)(F)F)onc2c2ccccc12)C(F)(F)F |  | 1.49 µM (inactive) | 3.1 µM (inactive) | 2.38 µM (inactive) | 6.47 µM (inactive) | 0.347 µM (active) | 0.484 µM (active) | 0.236 µM (active) | 2.15 µM (inactive) |
| Cc1[nH]c2ccccc2c1C1Cc2ccccc2N1C(=O)C#Cc1ccc([N+](=O)[O-])cc1 (stereo unspecified) | > 100 µM (inactive) |  |  |  | > 100 µM (inactive) | > 100 µM (inactive) | > 100 µM (inactive) | > 100 µM (inactive) | > 100 µM (inactive) |
| CCCCCCCCCCCCCCCC(=O)OCC(C[As](=O)(O)O)OC(=O)CCCCCCCCCCCCCCC (stereo unspecified) | 27 µM (inactive) | > 100 µM (inactive) | > 100 µM (inactive) | 54.7 µM (inactive) | > 100 µM (inactive) | > 100 µM (inactive) | > 100 µM (inactive) | 22.4 µM (inactive) | 70.6 µM (inactive) |
| C=CCONC(=O)c1ccc(Cl)cc1 | > 100 µM (inactive) |  | > 100 µM (inactive) | > 100 µM (inactive) | > 100 µM (inactive) | > 100 µM (inactive) | > 100 µM (inactive) | > 100 µM (inactive) | > 100 µM (inactive) |
| CC1(c2cccc(C3CCC4(C=CC3=O)OCCO4)c2)OCCO1 (stereo unspecified) |  | 10.9 µM (inactive) | 5.62 µM (inactive) |  |  | 1.62 µM (inactive) | 3.35 µM (inactive) | 19.4 µM (inactive) | 1.8 µM (inactive) |
| Cc1cc(/N=C2\C=C(Nc3cc(C)on3)C(=O)c3ccccc32)no1 | 35.6 µM (inactive) | 80.4 µM (inactive) | 2.64 µM (inactive) | 28.8 µM (inactive) | 28.4 µM (inactive) | > 100 µM (inactive) | > 100 µM (inactive) | 24.7 µM (inactive) | 25.1 µM (inactive) |
| CC1OC(OC2CC(O)(C(=O)CO)Cc3c(O)c4c(c(O)c32)C(=O)c2ccccc2C4=O)CC(N)C1O (stereo unspecified) |  | < 0.01 µM (active) | < 0.01 µM (active) | 0.0102 µM (active) | < 0.01 µM (active) | < 0.0238 µM (active) | < 0.01 µM (active) | 0.0637 µM (active) | < 0.01 µM (active) |
| CN(C)C(=S)/N=c1\sn(C)/c(=N\C(=S)N(C)C)n1C | > 100 µM (inactive) | 36.7 µM (inactive) | 25.8 µM (inactive) | > 100 µM (inactive) | > 100 µM (inactive) | > 100 µM (inactive) | > 100 µM (inactive) | > 100 µM (inactive) |  |
| O=C1C2CN(Cc3ccccc3)CC1CN(CC1CC1)C2 | > 100 µM (inactive) | > 100 µM (inactive) | > 100 µM (inactive) |  | > 100 µM (inactive) | > 100 µM (inactive) |  |  | > 100 µM (inactive) |
| CC(=O)OCCOCNC(=S)N/N=C/c1ccc([N+](=O)[O-])o1 | > 100 µM (inactive) | 37.9 µM (inactive) | 15.7 µM (inactive) | 58.7 µM (inactive) | > 100 µM (inactive) | 77.6 µM (inactive) | 53.1 µM (inactive) | > 100 µM (inactive) | 17.1 µM (inactive) |
| Cc1c(Cl)ccc2c1NC(=O)C2(O)CC(=O)c1ccc(Cl)cc1Cl (stereo unspecified) | 16.7 µM (inactive) | > 50 µM (inactive) | > 50 µM (inactive) | 31 µM (inactive) |  | 27.8 µM (inactive) |  | 21.8 µM (inactive) | 38.5 µM (inactive) |
| O=C1C(c2ccccc2)=C(c2ccccc2)C(c2ccc(CCCCCCc3ccc(C4=C(c5ccccc5)C(=O)C(c5ccccc5)=C4c4ccccc4)cc3)cc2)=C1c1ccccc1 |  | > 100 µM (inactive) | > 100 µM (inactive) | > 100 µM (inactive) |  | > 100 µM (inactive) | > 100 µM (inactive) | > 100 µM (inactive) | > 100 µM (inactive) |
| COc1ccccc1NC(=O)C1=C(C)NC(C)=C(C(=O)Nc2ccccc2OC)C1c1ccc(C(C)C)cc1 | 18.6 µM (inactive) | 59.7 µM (inactive) | > 100 µM (inactive) | > 100 µM (inactive) | > 100 µM (inactive) | > 100 µM (inactive) | > 100 µM (inactive) |  |  |
| COc1ccc(/C=N/NS(=O)(=O)c2ccccc2)cc1 | > 100 µM (inactive) | > 100 µM (inactive) | > 100 µM (inactive) |  | > 100 µM (inactive) | > 100 µM (inactive) | > 100 µM (inactive) | > 100 µM (inactive) | 63.1 µM (inactive) |
| Cc1nc(-n2nc(-c3ccccc3)cc2-c2ccccc2)sc1C(=O)CC(=O)C(=O)Nc1ccc(Cl)c(Cl)c1 |  | 59.8 µM (inactive) | > 100 µM (inactive) | > 100 µM (inactive) | > 100 µM (inactive) | 45.1 µM (inactive) | 34 µM (inactive) | > 100 µM (inactive) | 33.6 µM (inactive) |
| CCc1cccc(C)c1NC(=O)C1=C(C)NC(C)=C(C(=O)Nc2c(C)cccc2CC)C1c1ccc2c(c1)OCO2 | 15.7 µM (inactive) |  | 21.4 µM (inactive) | 20 µM (inactive) |  | 18.2 µM (inactive) | 20.5 µM (inactive) | 25.8 µM (inactive) | 16.2 µM (inactive) |
| O=C1c2cc3c(cc2[C@@H]2NC4CCCC14O2)OCO3 (stereo partly specified) | > 100 µM (inactive) | > 100 µM (inactive) | > 100 µM (inactive) |  |  | > 100 µM (inactive) | > 100 µM (inactive) | > 100 µM (inactive) | > 100 µM (inactive) |
| CS(=O)(=O)N(N(CCCl)S(=O)(=O)c1ccccc1)S(C)(=O)=O | > 100 µM (inactive) | > 100 µM (inactive) | > 100 µM (inactive) | > 100 µM (inactive) | 31 µM (inactive) | > 100 µM (inactive) | > 100 µM (inactive) |  |  |
